{"source": "patent US20100298141A1", "about": "“SUBSTITUTED PYRIDINE N-OXIDE HERBICIDES” (E. I. DU PONT DE NEMOURS AND COMPANY, priority 2007, published 2010)", "key": {"Italian ryegrass": {"tested_on": "Italian ryegrass", "assay": "Test F preemergence test", "type": "in vivo, Lolium multiflorum", "settings": "scale 0 to 100", "how_it_was_run": "(§1)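 Greenhouse screen: test chemical in surfactant-containing non-phytotoxic solvent applied preemergence to sown seeds or postemergence to sugarcane plants; after 14 to 21 days each species scored visually versus controls.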"}, "Surinam grass": {"tested_on": "Surinam grass", "assay": "Test F preemergence test", "type": "in vivo, Brachiaria decumbens", "settings": "scale 0 to 100", "how_it_was_run": "as §1"}, "Russian thistle": {"tested_on": "Russian thistle", "assay": "Test C pre-/postemergence test", "type": "in vivo, Salsola kali", "how_it_was_run": "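Test chemicals were formulated with surfactant in a non-phytotoxic solvent and sprayed both on freshly planted seeds (preemergence) and on 1- to 4-leaf plants of 2–18 cm (postemergence). Flooded-paddy pots received compound directly into 3 cm of standing water, maintained for the test.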"}, "common purslane": {"tested_on": "common purslane", "assay": "Test F preemergence test", "type": "in vivo, Portulaca oleracea", "settings": "scale 0 to 100", "how_it_was_run": "as §1"}, "naked crabgrass": {"tested_on": "naked crabgrass", "assay": "Test F preemergence test", "type": "in vivo, Digitaria nuda", "settings": "scale 0 to 100", "how_it_was_run": "as §1"}, "purple nutsedge": {"tested_on": "purple nutsedge", "assay": "Test F preemergence test", "type": "in vivo, Cyperus rotundus", "settings": "scale 0 to 100", "how_it_was_run": "as §1"}, "goosegrass": {"tested_on": "goosegrass", "assay": "Test F preemergence test", "type": "in vivo, Eleusine indica", "settings": "scale 0 to 100", "how_it_was_run": "as §1"}, "kochia": {"tested_on": "kochia", "assay": "Test F preemergence test", "type": "in vivo, Kochia scoparia", "settings": "scale 0 to 100", "how_it_was_run": "as §1"}, "johnsongrass": {"tested_on": "johnsongrass", "assay": "Test F preemergence test", "type": "in vivo, Sorghum halepense", "settings": "scale 0 to 100", "how_it_was_run": "as §1"}, "quackgrass": {"tested_on": "quackgrass", "assay": "Test F preemergence test", "type": "in vivo, Elytrigia repens", "settings": "scale 0 to 100", "how_it_was_run": "as §1"}, "common ragweed": {"tested_on": "common ragweed", "assay": "Test F preemergence test", "type": "in vivo, Ambrosia elation", "settings": "scale 0 to 100", "how_it_was_run": "as §1"}, "common groundsel": {"tested_on": "common groundsel", "assay": "Test F preemergence test", "type": "in vivo, Senecio vulgaris", "settings": "scale 0 to 100", "how_it_was_run": "as §1"}, "prickly sida": {"tested_on": "prickly sida", "assay": "Test F preemergence test", "type": "in vivo, Sida spinosa", "settings": "scale 0 to 100", "how_it_was_run": "as §1"}, "pitted morningglory": {"tested_on": "pitted morningglory", "assay": "Test F preemergence test", "type": "in vivo, Ipomoea lacunosa", "settings": "scale 0 to 100", "how_it_was_run": "as §1"}, "bermudagrass": {"tested_on": "bermudagrass", "assay": "Test F preemergence test", "type": "in vivo, Cynodon dactylon", "settings": "scale 0 to 100", "how_it_was_run": "as §1"}, "large crabgrass": {"tested_on": "large crabgrass", "assay": "Test F preemergence test", "type": "in vivo, Digitaria sanguinalis", "settings": "scale 0 to 100", "how_it_was_run": "as §1"}, "guineagrass": {"tested_on": "guineagrass", "assay": "Test F preemergence test", "type": "in vivo, Panicum maximum", "settings": "scale 0 to 100", "how_it_was_run": "as §1"}, "southern sandbur": {"tested_on": "southern sandbur", "assay": "Test F preemergence test", "type": "in vivo, Cenchrus echinatus", "settings": "scale 0 to 100", "how_it_was_run": "as §1"}}}
{"smiles": "Cn1nc(C(F)(F)F)c(C[S+]([O-])c2ccc(Cl)c[n+]2[O-])c1OCC(F)(F)F", "note": "(racemic) [Compound 62]", "values": [{"measurement": "Plant response rating, Ryegrass, Italian", "setting": "Italian ryegrass; 16 g ai/ha, preemergence", "value": 50}, {"measurement": "Ryegrass, Italian plant response rating", "setting": "Italian ryegrass; 125 g ai/ha, preemergence", "value": 100}, {"measurement": "Plant response rating, Ryegrass, Italian", "setting": "Italian ryegrass; Preemergence, 62 g ai/ha", "value": 100}, {"measurement": "Plant response rating, Ryegrass, Italian", "setting": "Italian ryegrass; Preemergence, 31 g ai/ha", "value": 98}, {"measurement": "Plant response rating, Surinam Grass", "setting": "Surinam grass; 16 g ai/ha, preemergence", "value": 60}, {"measurement": "Surinam Grass plant response rating", "setting": "Surinam grass; 125 g ai/ha, preemergence", "value": 100}, {"measurement": "Plant response rating, Surinam Grass", "setting": "Surinam grass; Preemergence, 62 g ai/ha", "value": 100}, {"measurement": "Plant response rating, Surinam Grass", "setting": "Surinam grass; Preemergence, 31 g ai/ha", "value": 95}, {"measurement": "Russian Thistle plant response rating", "setting": "Russian thistle; 62 g ai/ha, Preemergence, scale 0 to 100", "value": 100}, {"measurement": "Russian Thistle plant response rating", "setting": "Russian thistle; 125 g ai/ha, preemergence, scale 0 (no effect) to 100 (complete control)", "value": 100}, {"measurement": "Plant response rating, Russian Thistle", "setting": "Russian thistle; Preemergence, 31 g ai/ha, scale 0 to 100 (0 no effect, 100 complete control)", "value": 100}, {"measurement": "Russian Thistle plant response rating", "setting": "Russian thistle; preemergence, 250 g ai/ha, scale 0 (no effect) to 100 (complete control)", "value": 100}, {"measurement": "Plant response rating, Purslane", "setting": "common purslane; 16 g ai/ha, preemergence", "value": 15}, {"measurement": "Purslane plant response rating", "setting": "common purslane; 62 g ai/ha, Preemergence", "value": 60}, {"measurement": "Purslane plant response rating", "setting": "common purslane; 125 g ai/ha, preemergence", "value": 75}, {"measurement": "Plant response rating, Purslane", "setting": "common purslane; Preemergence, 31 g ai/ha", "value": 40}, {"measurement": "Plant response rating, Crabgrass, Naked", "setting": "naked crabgrass; 16 g ai/ha, preemergence", "value": 90}, {"measurement": "Crabgrass, Naked plant response rating", "setting": "naked crabgrass; 62 g ai/ha, Preemergence", "value": 100}, {"measurement": "Crabgrass, Naked plant response rating", "setting": "naked crabgrass; 125 g ai/ha, preemergence", "value": 100}, {"measurement": "Plant response rating, Crabgrass, Naked", "setting": "naked crabgrass; Preemergence, 31 g ai/ha", "value": 90}, {"measurement": "Plant response rating, Purple Nutsedge", "setting": "purple nutsedge; 16 g ai/ha, preemergence", "value": 0}, {"measurement": "Purple Nutsedge plant response rating", "setting": "purple nutsedge; 62 g ai/ha, Preemergence", "value": 65}, {"measurement": "Purple Nutsedge plant response rating", "setting": "purple nutsedge; 125 g ai/ha, preemergence", "value": 75}, {"measurement": "Plant response rating, Purple Nutsedge", "setting": "purple nutsedge; Preemergence, 31 g ai/ha", "value": 35}, {"measurement": "Plant response rating, Goosegrass", "setting": "goosegrass; 16 g ai/ha, preemergence", "value": 50}, {"measurement": "Goosegrass plant response rating", "setting": "goosegrass; 62 g ai/ha, Preemergence", "value": 98}, {"measurement": "Goosegrass plant response rating", "setting": "goosegrass; 125 g ai/ha, preemergence", "value": 100}, {"measurement": "Plant response rating, Goosegrass", "setting": "goosegrass; Preemergence, 31 g ai/ha", "value": 65}, {"measurement": "Plant response rating, Kochia", "setting": "kochia; 16 g ai/ha, preemergence", "value": 0}, {"measurement": "Kochia plant response rating", "setting": "kochia; 62 g ai/ha, Preemergence", "value": 15}, {"measurement": "Kochia plant response rating", "setting": "kochia; 125 g ai/ha, preemergence", "value": 100}, {"measurement": "Plant response rating, Kochia", "setting": "kochia; Preemergence, 31 g ai/ha", "value": 0}, {"measurement": "Plant response rating, Johnsongrass", "setting": "johnsongrass; 16 g ai/ha, preemergence", "value": 20}, {"measurement": "Johnsongrass plant response rating", "setting": "johnsongrass; 62 g ai/ha, Preemergence", "value": 100}, {"measurement": "Johnsongrass plant response rating", "setting": "johnsongrass; 125 g ai/ha, preemergence", "value": 100}, {"measurement": "Plant response rating, Johnsongrass", "setting": "johnsongrass; Preemergence, 31 g ai/ha", "value": 80}, {"measurement": "Plant response rating, Quackgrass", "setting": "quackgrass; 16 g ai/ha, preemergence", "value": 40}, {"measurement": "Quackgrass plant response rating", "setting": "quackgrass; 62 g ai/ha, Preemergence", "value": 75}, {"measurement": "Quackgrass plant response rating", "setting": "quackgrass; 125 g ai/ha, preemergence", "value": 98}, {"measurement": "Plant response rating, Quackgrass", "setting": "quackgrass; Preemergence, 31 g ai/ha", "value": 75}, {"measurement": "Plant response rating, Ragweed", "setting": "common ragweed; 16 g ai/ha, preemergence", "value": 60}, {"measurement": "Ragweed plant response rating", "setting": "common ragweed; 125 g ai/ha, preemergence", "value": 80}, {"measurement": "Plant response rating, Ragweed", "setting": "common ragweed; Preemergence, 62 g ai/ha", "value": 70}, {"measurement": "Plant response rating, Ragweed", "setting": "common ragweed; Preemergence, 31 g ai/ha", "value": 60}, {"measurement": "Plant response rating, Groundsel", "setting": "common groundsel; 16 g ai/ha, preemergence", "value": 0}, {"measurement": "Groundsel plant response rating", "setting": "common groundsel; 62 g ai/ha, Preemergence", "value": 80}, {"measurement": "Groundsel plant response rating", "setting": "common groundsel; 125 g ai/ha, preemergence", "value": 90}, {"measurement": "Plant response rating, Groundsel", "setting": "common groundsel; Preemergence, 31 g ai/ha", "value": 70}, {"measurement": "Plant response rating, Prickly Sida", "setting": "prickly sida; 16 g ai/ha, preemergence", "value": 15}, {"measurement": "Prickly Sida plant response rating", "setting": "prickly sida; 62 g ai/ha, Preemergence", "value": 75}, {"measurement": "Prickly Sida plant response rating", "setting": "prickly sida; 125 g ai/ha, preemergence", "value": 95}, {"measurement": "Plant response rating, Prickly Sida", "setting": "prickly sida; Preemergence, 31 g ai/ha", "value": 65}, {"measurement": "Plant response rating, Morningglory", "setting": "pitted morningglory; 16 g ai/ha, preemergence", "value": 0}, {"measurement": "Morningglory plant response rating", "setting": "pitted morningglory; 62 g ai/ha, Preemergence", "value": 75}, {"measurement": "Morningglory plant response rating", "setting": "pitted morningglory; 125 g ai/ha, preemergence", "value": 100}, {"measurement": "Plant response rating, Morningglory", "setting": "pitted morningglory; Preemergence, 31 g ai/ha", "value": 75}, {"measurement": "Plant response rating, Bermudagrass", "setting": "bermudagrass; 16 g ai/ha, preemergence", "value": 20}, {"measurement": "Bermudagrass plant response rating", "setting": "bermudagrass; 62 g ai/ha, Preemergence", "value": 75}, {"measurement": "Bermudagrass plant response rating", "setting": "bermudagrass; 125 g ai/ha, preemergence", "value": 100}, {"measurement": "Plant response rating, Bermudagrass", "setting": "bermudagrass; Preemergence, 31 g ai/ha", "value": 20}, {"measurement": "Plant response rating, Crabgrass, Large", "setting": "large crabgrass; 16 g ai/ha, preemergence", "value": 15}, {"measurement": "Crabgrass, Large plant response rating", "setting": "large crabgrass; 62 g ai/ha, Preemergence", "value": 90}, {"measurement": "Crabgrass, Large plant response rating", "setting": "large crabgrass; 125 g ai/ha, preemergence", "value": 98}, {"measurement": "Plant response rating, Crabgrass, Large", "setting": "large crabgrass; Preemergence, 31 g ai/ha", "value": 60}, {"measurement": "Plant response rating, Guineagrass", "setting": "guineagrass; 16 g ai/ha, preemergence", "value": 70}, {"measurement": "Guineagrass plant response rating", "setting": "guineagrass; 62 g ai/ha, Preemergence", "value": 100}, {"measurement": "Guineagrass plant response rating", "setting": "guineagrass; 125 g ai/ha, preemergence", "value": 100}, {"measurement": "Plant response rating, Guineagrass", "setting": "guineagrass; Preemergence, 31 g ai/ha", "value": 80}, {"measurement": "Plant response rating, Sandbur", "setting": "southern sandbur; 16 g ai/ha, preemergence", "value": 25}, {"measurement": "Sandbur plant response rating", "setting": "southern sandbur; 125 g ai/ha, preemergence", "value": 98}, {"measurement": "Plant response rating, Sandbur", "setting": "southern sandbur; Preemergence, 62 g ai/ha", "value": 98}, {"measurement": "Plant response rating, Sandbur", "setting": "southern sandbur; Preemergence, 31 g ai/ha", "value": 75}]}
